Laboratory results published in PubChem BioAssay (NCI).
“And” between values parts separate entries of the source, which are not always exact repeats. Identical values can stand only once.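 Following 48 hours of exposure in 96-well plates, responses at five concentrations were used to interpolate endpoints linearly. The concentration for 50% growth inhibition is given as GI50. Definition used: TGI = concentration required for complete inhibition of growth.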

Legend:
Test in all cases: inhibition of tumour cell growth, NCI panel, 48 h
PC-3 prostate = tested on: PC-3 prostate
BT-549 breast = tested on: BT-549 breast
M14 melanoma = tested on: M14 melanoma
U251 CNS = tested on: U251 CNS
IGROV1 ovarian = tested on: IGROV1 ovarian
OVCAR-4 ovarian = tested on: OVCAR-4 ovarian
SW-620 colon = tested on: SW-620 colon
A498 renal = tested on: A498 renal
SK-MEL-28 melanoma = tested on: SK-MEL-28 melanoma
HT29 colon = tested on: HT29 colon

| SMILES | GI50 (PC-3 prostate) | TGI (PC-3 prostate) | GI50 (BT-549 breast) | TGI (BT-549 breast) | GI50 (M14 melanoma) | TGI (M14 melanoma) | GI50 (U251 CNS) | TGI (U251 CNS) | GI50 (IGROV1 ovarian) | TGI (IGROV1 ovarian) | GI50 (OVCAR-4 ovarian) | TGI (OVCAR-4 ovarian) | GI50 (SW-620 colon) | TGI (SW-620 colon) | GI50 (A498 renal) | TGI (A498 renal) | GI50 (SK-MEL-28 melanoma) | TGI (SK-MEL-28 melanoma) | GI50 (HT29 colon) | TGI (HT29 colon) |
| --- | --- | --- | --- | --- | --- | --- | --- | --- | --- | --- | --- | --- | --- | --- | --- | --- | --- | --- | --- | --- |
| COC1=CC(c2ccc[nH]2)=N/C1=C\c1[nH]c(C)c(C(=O)CCC(=O)Oc2ccc3c(c2)CCC2C3CC[C@]3(C)[C@@H](O)CC[C@@H]23)c1C (stereo partly specified) | 3.8 µM | > 100 µM | 3.51 µM | 61.5 µM | 2.1 µM | 4.6 µM | 2.99 µM | 28.4 µM | 4.47 µM | > 100 µM | 5.02 µM | > 100 µM | 0.816 µM | 5.14 µM | 1.87 µM | 8.82 µM | 5.64 µM | > 100 µM |  |  |
| C[C@H](c1ccc(F)cc1CCCC(=O)O)N(c1cc(F)ccc1F)S(=O)(=O)c1ccc(Cl)cc1 | 26.5 µM | > 100 µM | 22.4 µM | 68.8 µM | 22.6 µM | > 80.2 µM | 31.9 µM | > 100 µM | 31.7 µM | > 92.4 µM | 26.8 µM | > 89.9 µM | 34.6 µM | > 100 µM | 13.1 µM | 57.6 µM | 22.1 µM | 65.5 µM | 35.3 µM | > 100 µM |
| OCc1ccc(-c2csc(-c3ccc(CO)o3)c2)o1 | 33.4 µM | > 100 µM | 21.4 µM | > 80.7 µM | 30.6 µM | > 100 µM | 29.7 µM | > 100 µM | 0.926 µM | > 100 µM | 6.43 µM | > 100 µM | 35.9 µM | > 100 µM | 0.018 µM | 0.0719 µM | 34.2 µM | > 100 µM | 36.6 µM | > 100 µM |
| O=C(Cn1c(C(=O)c2ccc(Cl)cc2)nc(-c2ccc(Cl)cc2)c1-c1ccc(Cl)cc1)c1ccccc1 | > 100 µM | > 100 µM | > 100 µM | > 100 µM | > 100 µM | > 100 µM | > 100 µM | > 100 µM | > 100 µM | > 100 µM | > 100 µM | > 100 µM | > 100 µM | > 100 µM | > 100 µM | > 100 µM | > 100 µM | > 100 µM | > 100 µM | > 100 µM |
| Cc1ccccc1C1=C(c2cn(C)c3ccccc23)C(=O)NC1=O | 9.74 µM | > 25 µM | > 21.8 µM | > 25 µM | > 25 µM | > 25 µM | 13.2 µM | > 25 µM | > 25 µM | > 25 µM | > 21.1 µM | > 25 µM | 12.1 µM | > 25 µM | 6.52 µM | 20.7 µM | > 25 µM | > 25 µM | 12.1 µM | > 25 µM |
| O=C(c1ccccc1)C(Cl)C(Cl)c1ccccc1 (stereo unspecified) | 5.29 µM | 15.8 µM | 2.55 µM | 6.12 µM | 2.12 µM | 4.79 µM | 3.97 µM | 14.3 µM | 3.45 µM | 11.4 µM | 3.45 µM | 14.4 µM | 1.41 µM | 3.36 µM | 13.6 µM | 27.1 µM | 2.47 µM | 6.46 µM | 2.05 µM | 4.12 µM |
| COc1ccc(/C=C/C(=O)c2c(O)ccc3c(C)c(C(=O)O)oc23)cc1 | 66 µM | > 100 µM | 73.7 µM | > 100 µM | > 100 µM | > 100 µM | 33.2 µM | > 100 µM | > 100 µM | > 100 µM | > 100 µM | > 100 µM | 56.3 µM | > 100 µM | 14.9 µM | 67.7 µM | > 100 µM | > 100 µM | > 100 µM | > 100 µM |
| CS(=O)(=O)CCNCc1ccc(-c2ccc3ncnc(Nc4ccc(OCc5cccc(F)c5)c(Cl)c4)c3c2)o1 | 9.68 µM and 5.3 µM and 4.45 µM | > 10 µM and > 100 µM and 46.4 µM | > 10 µM and 19.7 µM and 7.43 µM | > 10 µM and > 47.5 µM and 44.7 µM | 8.6 µM and 2.56 µM and 4.22 µM | > 10 µM and > 20.2 µM and 12.2 µM | > 10 µM and 6.7 µM and 9.36 µM | > 10 µM and > 100 µM and 24.9 µM | 2.02 µM and 0.338 µM and 0.387 µM | > 10 µM and 26.1 µM | > 10 µM and 7.8 µM and 6.78 µM | > 10 µM and > 86.9 µM and 23.3 µM | > 10 µM and 1.94 µM and 3.82 µM | > 10 µM and 3.6 µM and 9.46 µM | 2.32 µM and 1.98 µM and 3.67 µM | > 10 µM and > 33 µM and 23.8 µM | > 10 µM and 4.37 µM and 3.35 µM | > 10 µM and 16.5 µM and 18.9 µM | 7.36 µM and 2.2 µM | > 10 µM and 15.8 µM |
| COc1cc(OC)cc(Oc2cnc3cc(N)cc(N)c3n2)c1 | 24.7 µM | 56 µM | 17.2 µM | 39.2 µM | 13.4 µM | 26.8 µM | 15.5 µM | 28.8 µM |  |  | 9.07 µM | 21.8 µM | 18.6 µM | 43.7 µM | 11.8 µM | 39.9 µM | 14.2 µM | 28.4 µM | 13.3 µM | 30.6 µM |
| CN1CC=C(c2cc(NC(=O)Nc3ccc(Oc4ccnc(NC(=O)C5CC5)c4)c(F)c3)cc(C(F)(F)F)c2)CC1 | 0.242 µM | 1.25 µM | 1.6 µM | 3.87 µM | 0.524 µM | 1.48 µM | 0.208 µM | 0.824 µM | 0.244 µM | 1.34 µM | 0.26 µM | 2.35 µM | 0.196 µM | 0.556 µM | 2.05 µM | 3.9 µM | 1.23 µM | 3.07 µM | 0.166 µM | 0.678 µM |
| Cc1ccc(F)c(NC(=O)Nc2ccc(-c3cccc4[nH]nc(N)c34)cc2)c1 | 4.18 µM and 4.54 µM | 17.7 µM and > 10 µM | 2.64 µM and 3.39 µM | 9.82 µM and > 10 µM | 3.63 µM and 3.58 µM | 15.5 µM and > 10 µM | 3.49 µM and 3.16 µM | 20.6 µM and > 10 µM | 4 µM and 3.13 µM | 15.8 µM and > 10 µM | 3.1 µM and 3.8 µM | 17.1 µM and > 10 µM | 2.4 µM and 2.58 µM | 6.73 µM and 9.58 µM | 2.24 µM and 2.71 µM | 7.02 µM and 9.3 µM | 3.94 µM and 3.85 µM | 18.7 µM and > 10 µM | 2.46 µM and 2.86 µM | 6.93 µM and > 10 µM |
| Oc1cc(N2CC2)c(O)cc1N1CC1 | 1.85 µM | 14.6 µM | 1.84 µM | 5.96 µM | 0.511 µM | 1.93 µM | 0.577 µM | 10.7 µM | 0.794 µM | 3.6 µM | 2.28 µM | 8.9 µM | 0.372 µM | 7.37 µM | 0.581 µM | 2.55 µM | 1.71 µM | 4.2 µM | 0.384 µM | 6.79 µM |
